The values that follow come from patent US12384798B2, “ACC inhibitor and use thereof” (NANJING RUIJIE PHARMA CO., LTD., priority 2019, dated 2025).

The structures appear in SMILES notation. Like-named read-outs stand apart in the source and are kept apart here.

As a reminder, the IC50 is the point on the concentration scale where inhibition reaches its midpoint. By Cmax is commonly meant the maximum level reached in the sampled fluid or tissue. Broadly, the Tmax is the time at which the peak concentration occurs. Broadly, the bioavailability is the share of a dose that reaches the circulation, judged against a reference dose that is usually intravenous.

Series [1] concerns ACC1. As to conditions: ACC isolated from rat, mouse, monkey and human; cited from earlier work.
Series [2] deals with ACC2. As to conditions: ACC isolated from rat, mouse, monkey and human; cited from earlier work.
Series [3] can be described thus: Pharmacokinetic evaluation of compounds in rats. It is filed as in vivo. The settings on record: SD rats. The source says:
This example was intended to investigate the pharmacokinetics of the compounds of the present invention and ND630 in SD rats under the conditions of intravenous (iv) and intragastric administration (po). Unless otherwise stated, the experimental reagents and instruments are all commercially available. ND630 was Gilead's acetyl CoA carboxylase (ACC) inhibitor, with a structural formula as follows: […]
Formulation of compound: by taking a physiological saline solution of 5% DMSO+5% Solutol HS 15+90% HP-β-CD (20% w/v) as a solvent, a compound with the final concentration of 0.4 mg/mL was formulated for intravenous administration and a compound with the final concentration of 1 mg/mL was formulated for orally intragastric administration.
Animal feeding and management: male SD rats aged 6-8 weeks and weighing between 180-250 g were selected and raised in transparent resin plastic rate cages. Before administration, the rats were fasted overnight for at least 16 hours, and the feed supply was restored 4 hours after administration.
For the intravenous injection administration group, the dose was 2 mg/kg, and 0.2 mL of blood samples was collected from the jugular vein 5 min, 15 min, 30 min, 1 h, 3 h, 5 h, and 8 h after dosage. For the orally intragastric administration group, the dose was 10 mg/kg, and 0.2 mL of blood samples was collected from the jugular vein 15 min, 30 min, 1 h, 3 h, 5 h, 8 h, 12 h, and 24 h after dosage; and liver tissues were collected 1 h, 3 hand 24 h after dosage.
After the blood were sampled, the plasma was quickly separated by centrifugation at 4000 rpm (10 minutes, 4° C.). After the liver tissues were sampled, a mixture of methanol:water (1:1, v/v) three times the volume of the liver tissues was added to prepare a homogenate. 50 μL of plasma or homogenate sample was drawn, and 200 μL of an internal standard (30 ng/mL terfenadine, and acetonitrile) was added for precipitation. Centrifuging was carried out at 4° C. and 15,400 g for 10 minutes, and a supernatant was taken for analysis.
The concentration of a target compound was detected by LC-MS/MS. According to the plasma concentration-time curve, pharmacokinetic parameters were calculated by using a non-compartmental model (NCA) of software WinNonlin 7.0. […] Table 4. Pharmacokinetic results

For another series, the system named is HepG2 cells. Kind of series: [2-14C]-acetate incorporation assay in HepG2 cells. It is filed as cell-based. As to conditions: for IC50: Homo sapiens, HepG2 cells, read-out: IC50 [2-14C]-acetate binding assay. The procedure: [2-^14C]-Acetate Incorporation Assay in HepG2 Cells
DMEM (GIBCO, catalog number: 11965-092) was used as a complete culture medium for HepG2 cells (ATCC, catalog number: HB-8064). 10% fetal bovein serum (FBS, GIBCO, catalog number: 10099-141), penicillin (100 units/mL) and streptomycin (100 μg/mL) (Pen/Strep, GIBCO, catalog number: 15140-122) were added to a DMEM culture medium.
HepG2 cells were cultured in a 37° C. incubator holding 5% carbon dioxide, and passaged every 2-3 days.
The HepG2 cells were spread on a 24-well plate (Corning, catalog number: 3524) at a density of 2×10^5 cells-well, 500 μL per well, and cultured in a 37° C. incubator holding 5% carbon dioxide. On the fourth day of culture, 50 μL of a compound diluted at a gradient of 1:3 was added, with the final concentration of DMSO of 0.5% (v/v); and the cells were cultured for 1 hour in the incubator. 1 μCi [2-^14C]-sodium acetate (Perkin Elmer, catalog number: NEC085H001MC) was added to each well, and culture was conducted for another 5 hours. The culture medium in each well was transferred to a 15 mL centrifugal tube (BD, catalog number: 352096); 0.5 mL of 0.1 M NaOH was added; the cells were blown and washed repeatedly, and then transferred to new centrifugal tubes. Then, 1 mL of ethanol and 0.17 mL of 50% KOH solution were added to each centrifugal tube, which was then treated in a water bath at 90° C. for 1 hour. Next, the mixture was cooled to room temperature; 5 mL of petroleum ether was added to each centrifugal tube, which was turned upside down several times for mixing; the resulting mixture was centrifuged for 5 minutes (Eppendorf, Model: 5702, 1000 rpm); and an upper organic phase was discarded. 1 mL of concentrated hydrochloric acid was added to each centrifugal tube and centrifuged for 5 minutes, and 4 mL of petroleum ether was transferred into a glass tube (18×180 mm). The sample in the glass tube was dried at 64° C., and then dissolved and resuspended by addition of 400 μL of spotting solution (chloroform:n-hexane=1:1). 50 μL of the dissolved sample was drawn by a pipette (BIOHIT, Model: Proline Plus), and spotted onto an Isoplate-96-microwell plate (Perkin Elmer, catalog number: 6005040), and 200 μL of ULTIMA GOLD scintillation solution (Perkin Elmer, catalog number: 77-16061) was added, standing for 5 minutes. Finally, MicroBeta (PerkinElmer, Model: 2450) was used to read scintillation signals.
A 4-parameter logistic model or sigmoidal dose-response model in XLFit 5.3.1.3 (2006-2011 I D Business Solutions Limited) was used to fit IC50: fit=(A+((B−A)/(1+((C/x)^D)))); where the x-axis represented the log of compound concentration, and the y-axis represented count per minute (CPM).

The target of series [4] is ACC2 (Homo sapiens (Human), UniProt O00763). The series can be described thus: In vitro ACC inhibition assay (ADP-Glo), ACC2. Format: biochemical. On the procedure:
(§1) An exemplary procedure for the in vitro ACC inhibition assay, which can be used to determine the inhibitory action of the compounds of the invention toward either ACC1 or ACC2, is as follows. The ADP-Glo™ kinase assay kit from Promega was used. The ADP-Glo™ kinase assay is a luminescent ADP detection assay to measure enzymatic activity by quantifying the amount of ADP produced during an enzyme reaction. The assay was performed in two steps; first, after the enzyme reaction, an equal volume of ADP-Glo™ reagent was added to terminate the reaction and deplete the remaining ATP. Then, the kinase detection reagent was added to simultaneously convert ADP to ATP and allow the newly synthesized ATP to be measured using a luciferase/luciferin reaction. Luminescence can be correlated to ADP concentrations by using an ATP-to-ADP conversion curve. The detailed procedure was as follows. 4.5 μL of a working solution was added to a 384-well plate. The compound was diluted at 1:3 in succession in DMSO. 0.5 μL of diluted compound solution was added to a 384-well white Optiplate assay plate. The plates were incubated at room temperature for 15 minutes. 5 μL of substrate working solution was added to each well to initiate the reaction. A final ACC reaction solution consisted of: 0.5 nM ACC, 10 μM ATP, 5 μM acetyl-CoA, and 15 mM NaHCO3; and the final concentrations of the compound were measured as follows: 1 μM, 0.333 μM, 0.111 μM, 0.037 μM, 0.0123 μM, 0.00411 μM, 0.00137 μM, 0.000457 μM, 0.000152 μM, and 0.000051 μM. The plates were incubated at room temperature for 30 minutes. 10 μL of ADP-Glo™ reagent was added, and the plates were incubated at room temperature for 40 minutes. 20 μL of kinase detection reagent was added. The plates were incubated at room temperature for 40 minutes, then read on a Perkin Elmer EnVision 2104 plate reader for luminescence in relative light unit (RLU).
(§2) Data for each concentration, as well as the positive and negative controls were averaged, and the standard deviation was calculated. Percent inhibition was calculated by the formula: 100×(average negative control−compound)/(average negative control−average positive control). The IC50 for each compound was calculated by fitting the data with a non-linear regression equation: Y=Bottom+(Top−Bottom)/(1+10^((Log IC50−X)×HillSlope)), where X is the log of compound concentration and Y is the percent inhibition.
Background: In ADP-Glo the light output rises with the ADP produced.

The target of series [5] is ACC1 (Homo sapiens (Human), UniProt Q13085). Kind of series: In vitro ACC inhibition assay (ADP-Glo), ACC1. It is filed as biochemical. The procedure: as §1, §2

Sequence of ACC2 (Homo sapiens (Human), UniProt O00763) (O00763 whole entry, species assumed): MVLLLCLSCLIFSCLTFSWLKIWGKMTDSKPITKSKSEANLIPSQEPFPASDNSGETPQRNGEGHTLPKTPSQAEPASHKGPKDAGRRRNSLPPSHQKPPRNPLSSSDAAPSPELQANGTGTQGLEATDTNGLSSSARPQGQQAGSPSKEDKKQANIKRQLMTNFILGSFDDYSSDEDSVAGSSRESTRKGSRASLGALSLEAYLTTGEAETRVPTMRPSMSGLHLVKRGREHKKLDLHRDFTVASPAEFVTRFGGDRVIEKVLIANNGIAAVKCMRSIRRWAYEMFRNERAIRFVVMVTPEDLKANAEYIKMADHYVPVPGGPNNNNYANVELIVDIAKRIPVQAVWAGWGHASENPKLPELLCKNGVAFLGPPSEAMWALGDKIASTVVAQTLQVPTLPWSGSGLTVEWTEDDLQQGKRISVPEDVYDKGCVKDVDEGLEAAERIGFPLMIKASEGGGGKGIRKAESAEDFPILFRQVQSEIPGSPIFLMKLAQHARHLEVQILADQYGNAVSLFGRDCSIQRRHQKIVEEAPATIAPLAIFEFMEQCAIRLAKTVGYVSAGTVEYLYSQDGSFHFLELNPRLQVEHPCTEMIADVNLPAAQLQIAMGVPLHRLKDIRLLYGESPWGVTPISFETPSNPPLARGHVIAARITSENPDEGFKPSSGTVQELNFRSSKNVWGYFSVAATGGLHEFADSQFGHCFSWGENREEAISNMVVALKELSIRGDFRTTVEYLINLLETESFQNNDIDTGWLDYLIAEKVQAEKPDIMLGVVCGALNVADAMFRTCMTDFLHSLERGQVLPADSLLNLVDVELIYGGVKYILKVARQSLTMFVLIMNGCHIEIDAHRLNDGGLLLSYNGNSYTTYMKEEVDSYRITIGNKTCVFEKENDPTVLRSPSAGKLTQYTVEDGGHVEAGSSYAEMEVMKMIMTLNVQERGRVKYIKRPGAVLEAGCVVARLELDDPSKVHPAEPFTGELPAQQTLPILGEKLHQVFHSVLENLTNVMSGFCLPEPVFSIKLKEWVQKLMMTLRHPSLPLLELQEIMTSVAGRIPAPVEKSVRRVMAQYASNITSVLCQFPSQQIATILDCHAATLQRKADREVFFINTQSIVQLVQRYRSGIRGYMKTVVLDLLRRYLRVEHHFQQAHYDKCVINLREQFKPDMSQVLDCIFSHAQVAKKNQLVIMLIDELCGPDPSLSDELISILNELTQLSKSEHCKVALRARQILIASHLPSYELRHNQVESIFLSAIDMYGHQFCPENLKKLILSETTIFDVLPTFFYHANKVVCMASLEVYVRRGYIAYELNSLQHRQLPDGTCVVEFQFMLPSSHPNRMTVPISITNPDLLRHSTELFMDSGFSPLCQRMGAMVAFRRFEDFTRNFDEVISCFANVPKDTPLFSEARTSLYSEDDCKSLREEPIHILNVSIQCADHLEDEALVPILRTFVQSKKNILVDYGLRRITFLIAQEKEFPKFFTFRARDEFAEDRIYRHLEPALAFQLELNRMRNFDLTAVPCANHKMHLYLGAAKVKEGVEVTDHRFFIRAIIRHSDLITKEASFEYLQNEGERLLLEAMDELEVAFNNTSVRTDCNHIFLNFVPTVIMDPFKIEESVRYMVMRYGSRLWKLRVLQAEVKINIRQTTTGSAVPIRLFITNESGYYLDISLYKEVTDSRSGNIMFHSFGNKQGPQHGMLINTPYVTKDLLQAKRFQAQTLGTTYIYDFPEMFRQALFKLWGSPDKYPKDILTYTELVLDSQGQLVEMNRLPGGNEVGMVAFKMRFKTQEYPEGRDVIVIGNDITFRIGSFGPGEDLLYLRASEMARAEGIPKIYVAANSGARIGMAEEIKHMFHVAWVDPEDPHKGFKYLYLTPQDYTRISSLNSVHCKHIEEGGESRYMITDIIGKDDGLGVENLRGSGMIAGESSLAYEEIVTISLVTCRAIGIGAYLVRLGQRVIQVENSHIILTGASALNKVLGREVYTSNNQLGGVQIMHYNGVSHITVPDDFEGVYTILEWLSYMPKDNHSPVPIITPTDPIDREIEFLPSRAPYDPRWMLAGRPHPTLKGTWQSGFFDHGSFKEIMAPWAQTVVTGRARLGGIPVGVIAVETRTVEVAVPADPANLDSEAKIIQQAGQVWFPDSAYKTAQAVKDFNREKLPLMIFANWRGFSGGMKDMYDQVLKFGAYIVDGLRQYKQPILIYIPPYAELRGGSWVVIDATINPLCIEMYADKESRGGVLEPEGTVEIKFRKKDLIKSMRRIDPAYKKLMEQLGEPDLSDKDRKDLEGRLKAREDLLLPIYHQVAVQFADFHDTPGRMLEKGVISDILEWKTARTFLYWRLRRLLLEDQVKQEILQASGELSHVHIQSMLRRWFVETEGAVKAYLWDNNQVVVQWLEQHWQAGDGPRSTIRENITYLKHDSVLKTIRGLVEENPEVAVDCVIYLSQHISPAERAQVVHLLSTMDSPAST

`O=C(c1c2ccccc2cc2ccccc12)N1CCC(N2CCC[C@@H](C(=O)N3CCOCC3)C2)CC1` [CP-640186]: the IC50 in the series with ACC1 [1] and in the series on ACC2 [2] was roughly 60 nM throughout.
Molecule `COc1ccccc1[C@H](Cn1c(=O)n(C(C)(C)C(=O)O)c(=O)c2c(C)c(-c3ncco3)sc21)OC1CCOCC1` [ND630, reference compound] registered a Cl in series [3] of 12.2 mL/min/kg. Also, in series [3] (male, rat, liver/plasma, po 10 mg/kg, liver collected 1 h, 3 h and 24 h after dosage, read-out: L/P liver-to-blood ratio), the Kp was in the range of 5.5 to 41.9. For the same molecule, in series [3] (male, rat, plasma, intravenous, 2 mg/kg, read-out: Vss), the Vd stood at 0.48 L/kg. In addition, the AUC(0-inf) was found to be 2870 ng·h/mL in series [3] (male, rat, plasma, iv 2 mg/kg, read-out: AUC0-∞ (iv)) and 5090 ng·h/mL in series [3] (male, rat, plasma, po 10 mg/kg, read-out: AUC0-∞ (po)). Moreover, the Cmax worked out at 5630 ng/mL in series [3] (male, rat, plasma, iv 2 mg/kg, read-out: Cmax (iv)) and 2880 ng/mL in series [3] (male, rat, plasma, po 10 mg/kg, read-out: Cmax (po)). Besides, the time of peak concentration (Tmax) was 4.98 min in series [3] (male, rat, plasma, iv 2 mg/kg, read-out: Tmax (iv)) and 24 min in series [3] (male, rat, plasma, po 10 mg/kg, read-out: Tmax (po)). Moreover, the half-life in series [3] (male, rat, plasma, iv 2 mg/kg, read-out: t1/2 (iv) (converted)) was 63.6 min; in series [3] (male, rat, plasma, po 10 mg/kg, read-out: t1/2 (po) (converted)) it was 39 min. In series [3] (male, rat, plasma, po 10 mg/kg, iv 2 mg/kg, read-out: F (%) bioavailability), the bioavailability stood at 35.8%.
For the molecule `COc1ccccc1[C@H](Cn1c(=O)n(CC2CC(C(=O)O)C2)c(=O)c2c(C)c(-c3ncco3)sc21)OC1CCOCC1` (stereo partly drawn) [c-1, (R)-3-((1-(2-(2-methoxyphenyl)-2-((tetrahydro-2H-pyran-4-yl)oxy)ethyl)-5-methyl-6-(oxazol-2-yl)-2,4-dioxa-1,4-dihydrothieno[2,3-d]pyrimidine-3(2H)-yl)methyl)cyclobutane-1-carboxylic acid], in the series on HepG2 cells, the IC50 came out at 232 nM.
In the case of `COc1ccccc1[C@H](Cn1c(=O)n(C2CC(CC(=O)O)C2)c(=O)c2c(C)c(-c3ncco3)sc21)OC1CCOCC1` (stereo partly drawn) [c-3, (R)-2-(3-(1-(2-(2-methoxyphenyl)-2-((tetrahydro-2H-pyran-4-yl)oxy)ethyl)-5-methyl-6-(oxazol-2-yl)-2,4-dioxo-1,4-dihydrothieno[2,3-d]pyrimidine-3(2H)-yl)cyclobutyl)acetic acid], the “inhibitory properties against HepG2 cells (in words)” value with HepG2 cells was “good inhibitory properties”. For the same molecule, the IC50 amounted to 18.5 nM with HepG2 cells; 3 nM on ACC2 [4] (0.5 nM ACC, 10 μM ATP, 5 μM acetyl-CoA, read-out: Enzymatic activity IC50 ACC2); 0.688 nM on ACC1 [5] (0.5 nM ACC, 10 μM ATP, 5 μM acetyl-CoA, read-out: Enzymatic activity IC50 ACC1). In addition, the “inhibitory properties against ACC2 (in words)” value at ACC2 [4] is “good inhibitory properties”. The “inhibitory properties against ACC1 (in words)” value at ACC1 [5] is reported as “good inhibitory properties”.
